Results: patent US9364467B2 (Salix Pharmaceuticals, Ltd, priority 2012, dated 2016)
In brackets after ≈: the same amount, converted by molar mass. Where two headings read alike, the source gives them in different places.

Key:
S. epidermidis = assay: In vitro activity (MIC) against S. epidermidis strains
[1] = target: T1, N-Formyl Peptide Receptor FPR1 (Homo sapiens, UniProt P21462); assay: Radioligand binding assay, N-Formyl Peptide Receptor FPR1; settings: CONC. 10 μM, hum
T1 sequence (P21462 1-350): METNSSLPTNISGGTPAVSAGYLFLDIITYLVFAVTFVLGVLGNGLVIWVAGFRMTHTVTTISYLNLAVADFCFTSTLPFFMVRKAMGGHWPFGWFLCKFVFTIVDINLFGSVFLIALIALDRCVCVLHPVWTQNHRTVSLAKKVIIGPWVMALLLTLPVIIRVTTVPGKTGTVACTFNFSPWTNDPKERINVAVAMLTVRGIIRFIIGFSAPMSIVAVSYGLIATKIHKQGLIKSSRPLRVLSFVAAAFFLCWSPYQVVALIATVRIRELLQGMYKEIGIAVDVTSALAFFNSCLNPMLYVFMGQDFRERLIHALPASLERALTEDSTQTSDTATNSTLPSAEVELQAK
Description: (§1) Methods employed in this study have been adapted from the scientific literature to maximize reliability and reproducibility. Reference standards were run as an integral part of each assay to ensure the validity of the results obtained. Assays were performed under conditions described in the accompanying “Methods” section below. The literature reference(s) for each assay are in the “Literature References” section.
(§2) Where presented, IC50 values were determined by a non-linear, least squares regression analysis using MathIQ™ (ID Business Solutions Ltd., UK). Where inhibition constants (KI) are presented, the KI values were calculated using the equation of Cheng and Prusoff (Cheng, Y., Prusoff, W. H., Biochem. Pharmacol. 22:3099-3108, 1973) using the observed IC50 of the tested compound, the concentration of radioligand employed in the assay, and the historical values for the KD of the ligand (obtained experimentally at Ricerca Biosciences, LLC). Where presented, the Hill coefficient (nH), defining the slope of the competitive binding curve, was calculated using MathIQ™. […] Where IC50, KI, and/or nH data are presented without Standard Error of the Mean (SEM), data are insufficient to be quantitative, and the values presented (KI, IC50, nH) should be interpreted with caution. […]

S. xylosus = assay: In vitro activity (MIC) against S. xylosus strains
Bombesin BB1 = Bombesin BB1 (Homo sapiens, UniProt P28336); assay: Radioligand binding assay, Bombesin BB1; settings: CONC. 10 μM, hum
Chain of Bombesin BB1 (P28336 whole entry): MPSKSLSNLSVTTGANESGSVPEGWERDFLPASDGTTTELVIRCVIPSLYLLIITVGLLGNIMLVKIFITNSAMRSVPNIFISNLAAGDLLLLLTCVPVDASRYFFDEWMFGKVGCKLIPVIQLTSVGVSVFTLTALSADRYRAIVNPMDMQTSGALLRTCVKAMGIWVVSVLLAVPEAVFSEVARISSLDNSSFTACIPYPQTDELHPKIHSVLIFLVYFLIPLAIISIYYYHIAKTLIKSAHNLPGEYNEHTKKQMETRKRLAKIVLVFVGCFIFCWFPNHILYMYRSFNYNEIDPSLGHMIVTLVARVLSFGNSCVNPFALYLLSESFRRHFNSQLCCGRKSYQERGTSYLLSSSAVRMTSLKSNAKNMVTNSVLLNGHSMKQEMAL
Description: as §1, §2

[2] = system: Staphylococcus spp. strains; assay: In vitro activity (MIC) against Staphylococcus spp. strains; settings: for MIC50 / MIC90 / MIC: Staphylococcus
[3] = Screen at 10 μM against 168 targets; format: binding
[4] = read-out: Mode (MIC), Staphylococcus spp. strains

SMILES: CO[C@H]1/C=C/O[C@@]2(C)Oc3c(C)c(O)c4c(O)c(c5c(nc6cc(C)ccn65)c4c3C2=O)NC(=O)/C(C)=C\C=C\[C@H](C)[C@H](O)[C@@H](C)[C@@H](O)[C@@H](C)[C@H](OC(C)=O)[C@@H]1C [Rifaximin, reference compound]
- MIC (S. epidermidis; Staphylococcus epidermidis): 0.06 µg/mL (≈ 0.0763 µM)
- MIC (S. epidermidis; strain S. epidermidis 354): 0.06 µg/mL (≈ 0.0763 µM)
- inhibition at 10 µM [1]: < 50%
- MIC (S. xylosus; Staphylococcus xylosus): 0.5 µg/mL (≈ 0.636 µM)
- MIC (S. xylosus; strain S. xylosus 346): 0.5 µg/mL (≈ 0.636 µM)
- inhibition at 10 µM (Bombesin BB1): < 50%
- MIC50 [2]: 0.25 µg/mL (≈ 0.318 µM)
- MIC90 [2]: 1 µg/mL (≈ 1.27 µM)
- Range (MIC) ([2]; Staphylococcus spp. strains): 0.03 to 1 µg/mL
- MIC [2, 4]: 0.5 µg/mL (≈ 0.636 µM)
- MIC ([2]; strain S. spp. 1102): 0.06 µg/mL (≈ 0.0763 µM)
- MIC ([2]; strain S. spp. 1187): 0.03 µg/mL (≈ 0.0382 µM)
- MIC ([2]; strain S. spp. 1195): 0.06 µg/mL (≈ 0.0763 µM)
- MIC ([2]; strain S. spp. 1256): 0.12 µg/mL (≈ 0.153 µM)
- MIC ([2]; strain S. spp. 1312): 0.25 µg/mL (≈ 0.318 µM)
- MIC ([2]; strain S. spp. 1689): 1 µg/mL (≈ 1.27 µM)
- MIC ([2]; strain S. spp. 1745): 0.06 µg/mL (≈ 0.0763 µM)

SMILES: COC1/C=C/O[C@@]2(C)Oc3c(C)c(O)c4c(O)c(c5c(c4c3C2=O)NC2C=C(C)C=CN52)NC(=O)/C(C)=C\C=C\C(C)C(O)C(C)C(O)C(C)C(O)C1C (stereo partly shown) [25-desacetyl rifaximin]
- MIC (S. epidermidis; Staphylococcus epidermidis): 0.12 µg/mL (≈ 0.161 µM)
- MIC (S. epidermidis; strain S. epidermidis 354): 0.12 µg/mL (≈ 0.161 µM)
- inhibition at 10 µM [1]: > 50%
- MIC (S. xylosus; Staphylococcus xylosus): 2 µg/mL (≈ 2.68 µM)
- MIC (S. xylosus; strain S. xylosus 346): 2 µg/mL (≈ 2.68 µM)
- inhibition at 10 µM (Bombesin BB1): > 50%
- MIC50 [2]: 2 µg/mL (≈ 2.68 µM)
- MIC90 [2]: 16 µg/mL (≈ 21.5 µM)
- MIC [2, 4]: 2 µg/mL (≈ 2.68 µM)
- MIC ([2]; strain S. spp. 1102): 1 µg/mL (≈ 1.34 µM)
- MIC ([2]; strain S. spp. 1187): 2 µg/mL (≈ 2.68 µM)
- MIC ([2]; strain S. spp. 1195): 0.12 µg/mL (≈ 0.161 µM)
- MIC ([2]; strain S. spp. 1256): 4 µg/mL (≈ 5.36 µM)
- MIC ([2]; strain S. spp. 1312): 4 µg/mL (≈ 5.36 µM)
- MIC ([2]; strain S. spp. 1689): 4 µg/mL (≈ 5.36 µM)
- MIC ([2]; strain S. spp. 1745): 0.25 µg/mL (≈ 0.335 µM)
- hits (50% effect, either inhibition or stimulation) in screen against 168 targets [3]: two “hits”
